Reference: patent US7842683B2, “Neurotherapeutic compositions and method” (Revaax Pharmaceuticals, LLC, priority 1999, dated 2010)

What was measured:
male golden hamsters = assay: Resident/intruder paradigm of offensive aggression; assay type: in vivo, Syrian golden hamsters (Mesocricetus auratus); details: D vs L isomer, 50 μg/kg IP
Protocol: Male Syrian golden hamsters (Mesocricetus auratus) (140-150 g) obtained from Harlan Sprague-Dawley Laboratories (Indianapolis, Ind.) were housed individually in Plexiglas cages (24 cm×24 cm×20 cm), maintained on a reverse light:dark cycle (14L:10D; lights on at 19:00 hr) and provided food and water ad libitum. Animals were acclimated to the reverse light:dark cycle for at least two weeks before testing. All behavioral tests were conducted during the dark phase of the circadian cycle. All animals were acquired and cared for in accordance with the guidelines published in the Guide for the Care and Use of Laboratory Animals (National Institutes of Health Publications No. 85-23, Revised 1985).
(§1) Agonistic behavior can be classified as either offensive or defensive aggression (Blanchard and Blanchard, 1977; Adams, […]; Albert and Walsh, 1984). Offensive aggression is characterized by the aggressor initiating an attack on an opponent, while defensive aggression lacks active approach. Both types of aggression have their own unique neurobehavioral systems. The stimuli that elicit offensive and defense attack are different, as are the sequences of behaviors that accompany each agonistic response. […] Offensive aggression is easily studied using male golden hamsters tested in a resident/intruder paradigm, an established model of offensive aggression (Ferris and Potegal 1988). Placing an unfamiliar male hamster into the home cage of another male hamster elicits a well-defined sequence of agonistic behaviors from the resident that includes offensive aggression.
(§2) Hamsters are nocturnal and as such all behavioral tests were performed during the first four hrs of the dark phase under dim red illumination. The resident was scored for offensive aggression, e.g., latency to bite the intruder, the total number of bites, total contact time with the intruder and flank marking over a 10 min test period (Ferris and Potegal, 1988). Flank marking is a form of olfactory communication in which a hamsters arches its back and rubs pheromone producing flank glands against objects in the environment (Johnson, 1986).
Parametric data, i.e., latencies and contact time, were analyzed with a one-way ANOVA followed by Newman-Keuls post hoc tests. Non parametric data, i.e., number of bites and flank marks, were analyzed with Kruskal-Wallis tests followed by Mann-Whitney U tests to determine differences between groups. Two sample comparisons were analyzed with paired and unpaired t-Tests for parametric data and Wilcoxon and Mann-Whitney Tests for paired and unpaired non-parametric data, respectively.
as §1, with “by an” for “by the”, “an opponent; while,” for “an opponent, while”, “Potegal 1988) in the context of defending the home burrow.” for “Potegal 1988).”
as §2, with “Flank marking is a form of olfactory communication in which a hamsters arches its back and rubs pheromone producing flank glands against objects in the environment (Johnson, 1986).” left out

[1] = human, in vivo; cited from earlier work
bacteria = details: cited from earlier work

## CO[C@@]1(NC(=O)C(C(=O)O)c2ccc(O)cc2)C(=O)N2C(C(=O)O)=C(CSc3nnnn3C)CO[C@@H]21 (stereo partly shown) [D Mox]
Male golden hamsters
  contact time: no significant difference
  flank marking: no significant difference
  isomer affecting offensive aggressive behavior: active isomer
Male golden hamsters; 90 min
  bite latency: significantly increased
  number of bites: reduced
[1]
  unbound fraction to plasma protein vs L isomer: greater unbound fraction
bacteria
  antibacterial activity: has antibacterial activity
